Experimental data reported in PubChem BioAssay AID1919015 (Molecular Pharmacology Branch, DTP, NCI, 2023).

Tested on: OVCAR-5 complex spheroids with HUVEC/MSC, viability, % test/control
Assay: Anticancer human tumor OVCAR-5 cell line growth inhibition [AhR];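 also: spheroids exposed to compounds for 7 days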;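 as to viability, T/C: 100% = DMSO vehicle control wells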
Details: for IC50: curve of first compound; for viability, T/C: stronger effect = lower value
Outline: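 Spheroids combined tumor cells with HUVEC endothelial cells and human MSCs as stroma. AhR antagonists were paired with standard or investigational drugs, each dosed in half-log steps down from near clinical Cmax, or from 10 microM where Cmax was unknown.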

[1] = second compound 0.1 µM, first compound 0.0316 µM
[2] = second compound 0.1 µM, first compound 0.1 µM
[3] = second compound 0.1 µM, first compound 0.316 µM
[4] = second compound 0.1 µM, first compound 1 µM
[5] = second compound 0.1 µM, first compound 3.16 µM
[6] = second compound 0.1 µM, first compound 10 µM
[7] = second compound 0.316 µM, first compound 0.0316 µM
[8] = second compound 0.316 µM, first compound 0.1 µM
[9] = second compound 0.316 µM, first compound 0.316 µM
[10] = second compound 0.316 µM, first compound 1 µM
[11] = second compound 0.316 µM, first compound 3.16 µM
[12] = second compound 0.316 µM, first compound 10 µM
[13] = second compound 1 µM, first compound 0.0316 µM
[14] = second compound 1 µM, first compound 0.1 µM
[15] = second compound 1 µM, first compound 0.316 µM
[16] = second compound 1 µM, first compound 1 µM
[17] = second compound 1 µM, first compound 3.16 µM
[18] = second compound 1 µM, first compound 10 µM
[19] = second compound 3.16 µM, first compound 0.0316 µM
[20] = second compound 3.16 µM, first compound 0.1 µM
[21] = second compound 3.16 µM, first compound 0.316 µM
[22] = second compound 3.16 µM, first compound 1 µM
[23] = second compound 3.16 µM, first compound 3.16 µM
[24] = second compound 3.16 µM, first compound 10 µM
[25] = second compound 10 µM, first compound 0.0316 µM
[26] = second compound 10 µM, first compound 0.1 µM
[27] = second compound 10 µM, first compound 0.316 µM
[28] = second compound 10 µM, first compound 1 µM
[29] = second compound 10 µM, first compound 3.16 µM
[30] = second compound 10 µM, first compound 10 µM
[31] = second compound 0.1 µM, first compound 0.00316 µM
[32] = second compound 0.1 µM, first compound 0.01 µM
[33] = second compound 0.316 µM, first compound 0.00316 µM
[34] = second compound 0.316 µM, first compound 0.01 µM
[35] = second compound 1 µM, first compound 0.00316 µM
[36] = second compound 1 µM, first compound 0.01 µM
[37] = second compound 3.16 µM, first compound 0.00316 µM
[38] = second compound 3.16 µM, first compound 0.01 µM
[39] = second compound 10 µM, first compound 0.00316 µM
[40] = second compound 10 µM, first compound 0.01 µM

| Structure (SMILES) | IC50 (second compound 0.1 µM) | IC50 (second compound 0.316 µM) | IC50 (second compound 1 µM) | IC50 (second compound 3.16 µM) | IC50 (second compound 10 µM) | viability, T/C [1] | viability, T/C [2] | viability, T/C [3] | viability, T/C [4] | viability, T/C [7] | viability, T/C [8] | viability, T/C [9] | viability, T/C [10] | viability, T/C [13] | viability, T/C [14] | viability, T/C [15] | viability, T/C [19] | viability, T/C [20] | viability, T/C [25] | viability, T/C [26] | also measured |
| --- | --- | --- | --- | --- | --- | --- | --- | --- | --- | --- | --- | --- | --- | --- | --- | --- | --- | --- | --- | --- | --- |
| CC(C)c1c(-c2ccccc2)nc2c(C#N)c[nH]n2c1=O + Cc1ccccc1N=Nc1ccc(NC(=O)c2ccnn2C)c(C)c1 | > 10000 nM | > 10000 nM | > 10000 nM | > 10000 nM | > 10000 nM | 104% | 102% | 101% | 101% | 105% | 111% | 106% | 103% | 112% | 109% | 109% | 112% | 112% | 108% | 110% | viability, T/C [5]: 104%; viability, T/C [6]: 106%; viability, T/C [11]: 106%; viability, T/C [12]: 104%; viability, T/C [16]: 106%; viability, T/C [17]: 106%; viability, T/C [18]: 111%; viability, T/C [21]: 111%; viability, T/C [22]: 108%; viability, T/C [23]: 111%; viability, T/C [24]: 114%; viability, T/C [27]: 108%; viability, T/C [28]: 107%; viability, T/C [29]: 104%; viability, T/C [30]: 104% |
| COc1ccc([C@@H](O)c2cc(-c3ncnc4cc(N5CCOCC5)ccc34)c(F)cc2Cl)nn1 + Cc1ccccc1N=Nc1ccc(NC(=O)c2ccnn2C)c(C)c1 | 2910 nM | 2980 nM | 3750 nM | 4540 nM | 3230 nM | 102% | 101% | 95.5% | 76.3% | 104% | 102% | 97.5% | 76.8% | 109% | 107% | 99.5% | 113% | 106% | 103% | 98.9% | viability, T/C [5]: 48.4%; viability, T/C [6]: 24.1%; viability, T/C [11]: 49.1%; viability, T/C [12]: 27.6%; viability, T/C [16]: 87.5%; viability, T/C [17]: 53.5%; viability, T/C [18]: 26%; viability, T/C [21]: 98.9%; viability, T/C [22]: 85.1%; viability, T/C [23]: 57.6%; viability, T/C [24]: 31.6%; viability, T/C [27]: 96.3%; viability, T/C [28]: 76.7%; viability, T/C [29]: 51.2%; viability, T/C [30]: 22.8% |
| CC[C@@]1(O)C(=O)OCc2c1cc1n(c2=O)Cc2cc3c(CN(C)C)c(O)ccc3nc2-1 + Cc1cncc(-c2nc(NCCc3c[nH]c4ccccc34)c3ncn(C(C)C)c3n2)c1 | > 100 nM | > 100 nM | > 100 nM | 25.3 nM | < 0.316 nM | 49.3% | 52.3% | – | – | 50% | 52.8% | – | – | 48.4% | 55.8% | – | 43.4% | 50.5% | 6.78% | 14.5% | viability, T/C (second compound 0.1 µM, first compound 0.000316 µM): 100%; viability, T/C (second compound 0.1 µM, first compound 0.001 µM): 105%; viability, T/C [31]: 97.4%; viability, T/C [32]: 87%; viability, T/C (second compound 0.316 µM, first compound 0.000316 µM): 97.9%; viability, T/C (second compound 0.316 µM, first compound 0.001 µM): 100%; viability, T/C [33]: 92.7%; viability, T/C [34]: 82.2%; viability, T/C (second compound 1 µM, first compound 0.000316 µM): 93.6%; viability, T/C (second compound 1 µM, first compound 0.001 µM): 91.6%; viability, T/C [35]: 90.1%; viability, T/C [36]: 79.9%; viability, T/C (second compound 3.16 µM, first compound 0.000316 µM): 79.2%; viability, T/C (second compound 3.16 µM, first compound 0.001 µM): 79.5%; viability, T/C [37]: 77.2%; viability, T/C [38]: 62.9%; viability, T/C (second compound 10 µM, first compound 0.000316 µM): 22.3%; viability, T/C (second compound 10 µM, first compound 0.001 µM): 24.9%; viability, T/C [39]: 26.9%; viability, T/C [40]: 16.5% |
| COc1cc(C2c3cc4c(cc3C(OC3OC5COC(C)OC5C(O)C3O)C3COC(=O)C23)OCO4)cc(OC)c1O (stereo not given) + Cc1cncc(-c2nc(NCCc3c[nH]c4ccccc34)c3ncn(C(C)C)c3n2)c1 | 2680 nM | 2940 nM | 2360 nM | 909 nM | < 31.6 nM | 97.2% | 97.1% | 90.8% | 68.8% | 97.1% | 93.3% | 86% | 67.7% | 90% | 91.6% | 79.7% | 79.8% | 80.1% | 9.11% | 9.43% | viability, T/C [5]: 47.8%; viability, T/C [6]: 36.1%; viability, T/C [11]: 49%; viability, T/C [12]: 37.6%; viability, T/C [16]: 62.9%; viability, T/C [17]: 46.1%; viability, T/C [18]: 37.4%; viability, T/C [21]: 67.9%; viability, T/C [22]: 48.1%; viability, T/C [23]: 37.6%; viability, T/C [24]: 33%; viability, T/C [27]: 7.81%; viability, T/C [28]: 4.62%; viability, T/C [29]: 3.56%; viability, T/C [30]: 7.82% |
| COc1cccc2c1C(=O)c1c(O)c3c(c(O)c1C2=O)CC(O)(C(=O)CO)CC3OC1CC(N)C(O)C(C)O1 (stereo not given) + Cc1cncc(-c2nc(NCCc3c[nH]c4ccccc34)c3ncn(C(C)C)c3n2)c1 | 310 nM | 240 nM | 241 nM | < 31.6 nM | < 31.6 nM | 63.7% | 54.8% | 49% | 27.9% | 61.8% | 54% | 47.3% | 26.9% | 55.4% | 51.6% | 48.2% | 42.7% | 42.8% | 5.12% | 5.58% | viability, T/C [5]: 1.4%; viability, T/C [6]: 1.85%; viability, T/C [11]: 2.85%; viability, T/C [12]: 1.79%; viability, T/C [16]: 24.3%; viability, T/C [17]: 1.27%; viability, T/C [18]: 1.8%; viability, T/C [21]: 39.3%; viability, T/C [22]: 19.3%; viability, T/C [23]: 1.16%; viability, T/C [24]: 1.68%; viability, T/C [27]: 13.1%; viability, T/C [28]: 4.16%; viability, T/C [29]: 1.37%; viability, T/C [30]: 1.89% |
| Nc1ncn(C2CC(O)C(CO)O2)c(=O)n1 (stereo not given) + Cc1cncc(-c2nc(NCCc3c[nH]c4ccccc34)c3ncn(C(C)C)c3n2)c1 | > 1000 nM | > 1000 nM | > 1000 nM | > 1000 nM | < 3.16 nM | 87.6% | 80.7% | 69% | 62.7% | 90% | 74.8% | 65.5% | 59% | 85.4% | 78.3% | 61.5% | 70.4% | 64% | 8.47% | 8.64% | viability, T/C [31]: 98.3%; viability, T/C [32]: 94.2%; viability, T/C [33]: 93.8%; viability, T/C [34]: 91.7%; viability, T/C [35]: 96.2%; viability, T/C [36]: 85.5%; viability, T/C [16]: 61.8%; viability, T/C [37]: 79.8%; viability, T/C [38]: 77.8%; viability, T/C [21]: 59.8%; viability, T/C [22]: 51.2%; viability, T/C [39]: 10.4%; viability, T/C [40]: 10.1%; viability, T/C [27]: 8.49%; viability, T/C [28]: 11.6% |
